From patent US8530459B2, “Swallowtail motifs for imparting water solubility to porphyrinic compounds” (North Carolina State University, priority 2005, dated 2013) come the findings set out here.

Bounds are passed on as bounds.

What all share (assay type): physicochemical
Data set [1] in a line: Stability of porphyrin-phosphate in protic solvent monitored by 1H NMR and LD-MS. Conditions: mixture of CDCl3/CD3OD. From the text: Porphyrin 12a contains both the bioconjugatable site and the water-solubilizing groups, masked by tert-butyl and methyl esters, respectively. Attempts at the simultaneous removal of the tert-butyl and methyl ester protecting groups with TMS-Br were unsuccessful. […] This compound is identical to 15b (vide infra). […] The following observations were made: • (1) The crude porphyrin-phosphates, while displaying excellent water-solubility initially, precipitated out of solution within minutes. • (2) Because TMS-Br removed some of the zinc, remetalation was attempted with zinc acetate. […] Most (but not all) of the precipitate could be redissolved in concentrated (15 wt %) aqueous NaOH. • (3) When 12b was treated with TMS-Br in the presence of TEA to suppress demetalation,^27 the deprotected porphyrin-diol 11b was not formed until the addition of a protic solvent. During the work-up, 11b formed in quantitative yield, as determined by ^1H NMR spectroscopy and LD-MS [obsd m/z 567, calcd 566 for demetalated (M+H)^+] of the purified sample. • (4) A sample of 12b in a mixture of CDCl3/CD3OD was monitored by ^1H NMR and LD-MS. Within 8 h the formation of porphyrin 11b was almost quantitative (obsd m/z 566, disappearance of phosphate methyl ester singlets). • (5) Basic hydrolysis (H2O/MeOH, NaOH, various concentrations) removed only two of the methyl esters, but none of 11b was formed.

Data set [2] is described as follows: Stability of aqueous porphyrin solutions (naked eye, absorption spectroscopy). Conditions: for precipitation or aggregation of aqueous solutions: naked eye or absorption spectroscopy; for stability of aqueous solutions: room temperature, shielded from the light.
The nature of data set [3]: Water-solubility of pure porphyrin in distilled water. The note with it: thermodynamic from solid; 8-10 mg of pure porphyrin completely dissolved in 300 μL of distilled water; upper limit not determined; read-out: water-solubility (concentration). As to the method:
Determination of the upper limit of water-solubility was not possible due to the lack of material; however, in each case examined, 8-10 mg of pure porphyrin (14b, 17b, Zn17b, 17a, Zn17a) completely dissolved in 300 μL of distilled water, consistent with a concentration of >20 mM.

A short description of data set [4]: Solubility in organic solvents. The source says:
Reaction of 11a with dimethyl chlorophosphate in anhydrous pyridine gave no 12a, whereas similar reaction with 11b gave a very low yield of 12b. The poor yields are presumably due to the combination of low solubility and low reactivity on the part of the porphyrin-diol starting materials. We assumed that incorporation of the dimethoxyphosphoryl groups at an earlier stage could provide a more efficient process.

Turning to `COP(=O)(OC)OCCC(CCOP(=O)(OC)OC)c1c2nc(cc3ccc([n-]3)c(-c3ccc(Br)cc3)c3nc(cc4ccc1[n-]4)C=C3)C=C2.[Zn+2]` [12b, Zn(II)-5-(4-Bromophenyl)-15-[1,5-bis(dimethoxyphosphoryloxy)pent-3-yl]porphyrin], the “time to almost quantitative formation of porphyrin 11b (loss of phosphate groups)” value in data set [1] is reported as at most 8 h.

Regarding `O=P(O)(O)OCCC(CCOP(=O)(O)O)c1c2nc(cc3ccc([nH]3)c(-c3ccc(Br)cc3)c3nc(cc4ccc1[nH]4)C=C3)C=C2` [14b, 5-(4-Bromophenyl)-15-(1,5-bis[dihydroxyphosphoryloxy)pent-3-yl]porphyrin], in data set [2], the “precipitation or aggregation of aqueous solutions” value (shortened to “precipitation or aggregation”) is given as “Neither precipitation nor aggregation was observed” and the “stability of aqueous solutions” value is recorded as “stable for days”. Also, the solubility in data set [3] is over 20 mM.

Turning to `O=C(O)COc1ccc(-c2c3nc(cc4ccc([nH]4)c(C(CCP(=O)(O)O)CCP(=O)(O)O)c4nc(cc5ccc2[nH]5)C=C4)C=C3)cc1` [17a, 5-(4-(Carboxymethoxy)phenyl)-15-[1,5-bis(dihydroxyphosphoryl)pent-3-yl]porphyrin], in data set [2], the “precipitation or aggregation” value was “Neither precipitation nor aggregation was observed” and the “stability of aqueous solutions” value was “stable for days”. For the same compound, the solubility in data set [3] is over 20 mM.

Regarding `O=P(O)(O)CCC(CCP(=O)(O)O)c1c2nc(cc3ccc([nH]3)c(-c3ccc(Br)cc3)c3nc(cc4ccc1[nH]4)C=C3)C=C2` [17b, 5-(4-Bromophenyl)-15-[1,5-bis(dihydroxyphosphoryl)pent-3-yl]porphyrin], in data set [2], the “precipitation or aggregation” value is recorded as “Neither precipitation nor aggregation was observed” and the “stability of aqueous solutions” value was “stable for days”. Moreover, in data set [3], the solubility is over 20 mM.

Turning to `O=C(O)COc1ccc(-c2c3nc(cc4ccc([n-]4)c(C(CCP(=O)(O)O)CCP(=O)(O)O)c4nc(cc5ccc2[n-]5)C=C4)C=C3)cc1.[Zn+2]` [Zn17a, Zn(II)-5-(4-(Carboxymethoxy)phenyl)-15-[1,5-bis(dihydroxyphosphoryl)pent-3-yl]porphyrin], in data set [2], the “precipitation or aggregation” value is “Neither precipitation nor aggregation was observed” and the “stability of aqueous solutions” value is recorded as “stable for days”.

Consider “Zn(II)-5-(4-Bromophenyl)-15-(1,5-dihydroxypent-3-yl)porphyrin [11b]”, for which the “solubility in most organic solvents” value in data set [4] is “only sparingly soluble”.

For “Zn(II)-5-(4-Bromophenyl)-15-[1,5-bis(dihydroxyphosphoryl)pent-3-yl]porphyrin [Zn17b]”, in data set [2], the “precipitation or aggregation” value is given as “Neither precipitation nor aggregation was observed” and the “stability of aqueous solutions” value was “stable for days”.

Take “Zn(II)-5-(4-tert-Butoxycarbonylmethoxyphenyl)-5-(1,5-dihydroxypent-3-yl)-porphyrin [11a]”: in data set [4], the “solubility in most organic solvents” value is “only sparingly soluble”.
